Test results published in patent publication US12653800B2, “Small molecule inhibitors of TLR2 signaling” (University of Maryland, Baltimore, priority 2015, dated 2026).

Tests used:
Assay type in all cases: cell-based
[1] = target: T1, mTLR2/6 (Mus musculus, UniProt Q9QUN7); assay: NF-κβ (ELAM)-luciferase reporter assay in HEK293T cells transfected with murine TLR2 and TLR6, P2C; details: HEK293T transfected with murine TLR2 and TLR6, C29 50 μM, P2C 50 ng/mL 5 hrs
T1 construct: expressed in transfected cells; host or cells: HEK293T, transient transfection; plasmids from Dr. Vladimir Toshchakov
Procedure: FIG. 9. C29 is species-specific and blocks human TLR2/6 signaling, but not murine TLR2/6 signaling. (A-D) HEK293T cells were transiently transfected with reporter constructs for ELAM-luciferase, Renilla-luciferase, and pcDNA3.1 in combination with/without pcDNA3-YFP-hTLR2, pFLAG-CMV1-hTLR1, pcDNA3-CFP-hTLR6, pcDNA3.1-mTLR2-CFP, pcDNA3.1-mTLR1-YFP, or pcDNA3.1-mTLR6-CFP. Cells were pretreated for 1 hr with media, vehicle (65 μM NaOH), or C29 (50 μM) and then treated with P3C or P2C (50 ng/mL) for 5 hrs in the presence of media, vehicle, or C29. Lysates were prepared and the dual-luciferase assay performed. Panels A and B represent the mean±SEM from 3 independent experiments and panels C and D represent the mean±SEM from 2 independent experiments each carried out in duplicate (*, p≤0.05; **, p≤0.01).
HEK293T cells were cultured and plated overnight in 12-well tissue culture plates (2×10^5 cells/well). Transfection mixtures consisted of pcDNA3-YFP-hTLR2 or pcDNA3.1 control vector (1 μg/well each), pELAM (NF-κB)-luciferase (0.2 μg/well), and pRL-TK-Renilla luciferase (0.05 μg/well). […] Cells were lysed in a passive lysis buffer (Promega, Madison, WI) and firefly luciferase and Renilla luciferase activities were measured using the dual luciferase reporter assay system (Promega, Madison, WI). […]

[2] = target: T2, interaction of TLR2 with MyD88 (Homo sapiens, UniProt O60603); assay: Co-immunoprecipitation of TLR2 with MyD88 in THP-1 cells; details: C29 150 μM, P3C 50 ng/mL, 15 and 30 minutes, statistical significance at 30 minutes
T2 construct: host or cells: THP-1 cells, PMA 20 ng/mL for 24 hrs, P3C-stimulated
Procedure: FIG. 2. C29 inhibits ligand-induced interaction of TLR2 with MyD88 and blocks MAPK and NF-κβ activation. (A) THP-1 cells were cultured in the presence of PMA (20 ng/mL) for 24 hrs and washed twice in media. THP-1 human monocytes were pretreated with media, vehicle (195 μM NaOH), or C29 (150 μM) for 1 hr and treated with P3C (50 ng/mL) in the presence of media, vehicle, or C29 for 15 or 30 min. Co-immunoprecipitation (IP) was carried out using anti-MyD88 antibody and Western analysis (IB) using whole cell lysates. (B) Densitometry analysis (mean±SEM) of 3 independent experiments as shown in (A). (C) Murine peritoneal macrophages were pretreated for 1 hr with media, vehicle (65 μM NaOH), or C29 (50 μM) and treated with P3C (50 ng/mL) for 5-30 min in the presence of media, vehicle, or C29. IB was performed using whole cell lysates and antibodies directed against the signaling intermediates indicated. β-actin was probed as a loading protein. […]
Cells were treated and washed once with 1×PBS and lysed using buffer containing 20 mM HEPES (pH 7.4), 150 mM NaCl, 1 mM EDTA, 1 mM EGTA (pH 8.0), 50 mM NaF, 0.5% Triton X-100, 1 mM Na3VO4, 1 mM DTT, 1 mM PMSF, and protease inhibitor (Roche Applied Science, Indianapolis, IN). Cells were harvested and protein was quantified using BCA Protein assay reagents (Thermo Scientific/Pierce, Rockford, IL). […]

[3] = target: TLR2 (Mus musculus, UniProt Q9QUN7); assay: Cytokine mRNA in murine peritoneal macrophages (PEC) stimulated with bacterial TLR2 agonists; details: C29 50 μM
[4] = murine macrophages, MOI=0.7, 4 hrs
[5] = primary murine macrophages (PEC), MOI=50, 4 hrs

Sequence of TLR2 (Q9QUN7 25-784): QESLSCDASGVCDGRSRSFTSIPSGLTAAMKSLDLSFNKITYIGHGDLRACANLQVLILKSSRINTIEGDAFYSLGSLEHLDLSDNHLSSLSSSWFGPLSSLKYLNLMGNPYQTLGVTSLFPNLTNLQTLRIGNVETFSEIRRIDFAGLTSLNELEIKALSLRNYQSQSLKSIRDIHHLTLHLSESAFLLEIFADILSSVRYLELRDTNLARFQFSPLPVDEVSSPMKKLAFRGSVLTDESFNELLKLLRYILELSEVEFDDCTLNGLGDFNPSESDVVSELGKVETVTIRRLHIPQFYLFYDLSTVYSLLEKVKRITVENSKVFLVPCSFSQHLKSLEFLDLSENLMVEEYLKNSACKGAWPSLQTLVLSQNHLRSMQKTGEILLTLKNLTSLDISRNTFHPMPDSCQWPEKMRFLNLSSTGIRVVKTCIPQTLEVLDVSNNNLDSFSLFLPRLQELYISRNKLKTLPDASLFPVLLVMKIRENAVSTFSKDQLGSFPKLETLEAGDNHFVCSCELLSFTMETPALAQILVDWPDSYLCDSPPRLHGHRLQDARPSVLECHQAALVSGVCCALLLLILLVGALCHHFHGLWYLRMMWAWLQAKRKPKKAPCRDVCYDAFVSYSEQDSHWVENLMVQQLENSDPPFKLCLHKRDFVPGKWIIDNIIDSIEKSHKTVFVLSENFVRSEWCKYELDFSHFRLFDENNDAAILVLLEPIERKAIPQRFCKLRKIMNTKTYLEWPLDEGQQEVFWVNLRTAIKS
T1 sequence (Q9QUN7 25-784): as above
T2 sequence (O60603 21-784): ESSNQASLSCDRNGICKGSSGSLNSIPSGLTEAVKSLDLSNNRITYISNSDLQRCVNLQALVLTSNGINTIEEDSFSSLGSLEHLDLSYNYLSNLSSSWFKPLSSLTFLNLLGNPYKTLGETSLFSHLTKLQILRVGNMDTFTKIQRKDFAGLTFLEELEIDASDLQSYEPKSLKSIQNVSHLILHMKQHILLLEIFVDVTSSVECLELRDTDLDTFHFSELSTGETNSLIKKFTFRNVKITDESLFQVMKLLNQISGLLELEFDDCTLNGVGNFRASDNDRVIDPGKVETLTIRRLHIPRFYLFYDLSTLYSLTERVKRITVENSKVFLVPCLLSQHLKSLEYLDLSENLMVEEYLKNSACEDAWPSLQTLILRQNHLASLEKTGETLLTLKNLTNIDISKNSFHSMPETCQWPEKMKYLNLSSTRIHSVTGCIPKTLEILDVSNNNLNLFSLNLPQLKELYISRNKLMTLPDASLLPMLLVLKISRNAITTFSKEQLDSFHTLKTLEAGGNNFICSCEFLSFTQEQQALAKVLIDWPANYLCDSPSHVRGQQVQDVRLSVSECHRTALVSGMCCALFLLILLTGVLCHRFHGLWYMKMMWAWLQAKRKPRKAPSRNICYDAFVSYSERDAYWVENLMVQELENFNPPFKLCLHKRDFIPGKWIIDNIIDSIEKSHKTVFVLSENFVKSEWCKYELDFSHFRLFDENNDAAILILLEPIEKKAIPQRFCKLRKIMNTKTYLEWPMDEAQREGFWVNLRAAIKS

COc1cccc(/C=N/c2cccc(C(=O)O)c2C)c1O [Compound C29]
mTLR2/6-induced NF-κβ-luciferase activity [1]: but not mTLR2/6-induced | interaction between endogenous TLR2 and MyD88 (co-IP) [2]: diminished the interaction | live S. pneumoniae-induced IL-1β mRNA [3, 4]: inhibited | live S. pneumoniae-induced IL-12 p40 mRNA [3, 4]: inhibited | HKSA-mediated IL-1β mRNA [3, 5]: significantly blocked | heat-killed S. pneumoniae (HKSP)-mediated IL-1β mRNA [3, 5]: significantly blocked
